# Source: the supplement of paper PMC10307832
# How the values were obtained:
# Assay in all cases: relative viability (nuclei count vs DMSO), 5 days (fraction); higher = more cells survive
# LU99A = tested on: LU99A
# How it was run: (§1)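 Values are medians from duplicate plates. Each reflects relative viability, defined as the nuclei count of treated wells over that of vehicle wells. Lung cancer cell lines in 1536-well plates were pin-tool dosed one day after seeding with one drug alone or with a fixed anchor-drug dose plus five library-drug doses (not always all listed) in √10 steps, then fixed, stained and imaged at 4× after 5 days.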
# NCI-H1437 = tested on: NCI-H1437
# How it was run: as §1
# NCI-H441 = tested on: NCI-H441
# How it was run: as §1
# LK-2 = tested on: LK-2
# How it was run: as §1
# ABC-1 = tested on: ABC-1
# How it was run: as §1
# EKVX = tested on: EKVX
# How it was run: as §1
# COR-L 105 = tested on: COR-L 105
# How it was run: as §1
# NCI-H838 = tested on: NCI-H838
# How it was run: as §1
# BEN = tested on: BEN
# How it was run: as §1
# HARA = tested on: HARA
# How it was run: as §1
# NCI-H1666 = tested on: NCI-H1666
# How it was run: as §1
# 201T = tested on: 201T
# How it was run: as §1
# NCI-H1650 = tested on: NCI-H1650
# How it was run: as §1
# PC-14 = tested on: PC-14
# How it was run: as §1
# CAL-12T = tested on: CAL-12T
# How it was run: as §1
# NCI-H2009 = tested on: NCI-H2009
# How it was run: as §1
# SW 900 = tested on: SW 900
# How it was run: as §1
# NCI-H661 = tested on: NCI-H661
# How it was run: as §1
# COR-L23 = tested on: COR-L23
# How it was run: as §1
# NCI-H3122 = tested on: NCI-H3122
# How it was run: as §1
# NCI-H727 = tested on: NCI-H727
# How it was run: as §1
# HCC-366 = tested on: HCC-366
# How it was run: as §1
# NCI-H2170 = tested on: NCI-H2170
# How it was run: as §1
smiles,measurement,setting,value
NC(=O)Nc1cc(-c2cccc(F)c2)sc1C(=O)N[C@H]1CCCNC1 [AZD7762] + Cc1cc(Nc2cc(N3CCN(C)CC3)nc(Sc3ccc(NC(=O)C4CC4)cc3)n2)n[nH]1 [Tozasertib] (partner 0.1 µM),relative viability,LU99A; first compound 0.01 µM,0.318
same,relative viability,LU99A; first compound 0.03162 µM,0.279
same,relative viability,LU99A; first compound 0.1 µM,0.341
same,relative viability,LU99A; first compound 0.3162 µM,0.281
same,relative viability,LU99A; first compound 1 µM,0.218
same,relative viability,NCI-H1437; first compound 0.01 µM,0.408
same,relative viability,NCI-H1437; first compound 0.03162 µM,0.41
same,relative viability,NCI-H1437; first compound 0.1 µM,0.439
same,relative viability,NCI-H1437; first compound 0.3162 µM,0.372
same,relative viability,NCI-H1437; first compound 1 µM,0.366
same,relative viability,NCI-H441; first compound 0.01 µM,0.801
same,relative viability,NCI-H441; first compound 0.03162 µM,0.907
same,relative viability,NCI-H441; first compound 0.1 µM,0.908
same,relative viability,NCI-H441; first compound 0.3162 µM,0.925
same,relative viability,NCI-H441; first compound 1 µM,0.587
same,relative viability,LK-2; first compound 0.01 µM,0.194
same,relative viability,LK-2; first compound 0.03162 µM,0.186
same,relative viability,LK-2; first compound 0.1 µM,0.195
same,relative viability,LK-2; first compound 0.3162 µM,0.156
same,relative viability,LK-2; first compound 1 µM,0.165
same,relative viability,ABC-1; first compound 0.01 µM,0.18
same,relative viability,ABC-1; first compound 0.03162 µM,0.178
same,relative viability,ABC-1; first compound 0.1 µM,0.16
same,relative viability,ABC-1; first compound 0.3162 µM,0.115
same,relative viability,ABC-1; first compound 1 µM,0.111
same,relative viability,EKVX; first compound 0.01 µM,0.393
same,relative viability,EKVX; first compound 0.03162 µM,0.353
same,relative viability,EKVX; first compound 0.1 µM,0.414
same,relative viability,EKVX; first compound 0.3162 µM,0.394
same,relative viability,EKVX; first compound 1 µM,0.255
same,relative viability,COR-L 105; first compound 0.01 µM,0.348
same,relative viability,COR-L 105; first compound 0.03162 µM,0.311
same,relative viability,COR-L 105; first compound 0.1 µM,0.328
same,relative viability,COR-L 105; first compound 0.3162 µM,0.3
same,relative viability,COR-L 105; first compound 1 µM,0.258
same,relative viability,NCI-H838; first compound 0.01 µM,0.269
same,relative viability,NCI-H838; first compound 0.03162 µM,0.299
same,relative viability,NCI-H838; first compound 0.1 µM,0.244
same,relative viability,NCI-H838; first compound 0.3162 µM,0.187
same,relative viability,NCI-H838; first compound 1 µM,0.128
same,relative viability,BEN; first compound 0.01 µM,0.521
same,relative viability,BEN; first compound 0.03162 µM,0.465
same,relative viability,BEN; first compound 0.1 µM,0.539
same,relative viability,BEN; first compound 0.3162 µM,0.507
same,relative viability,BEN; first compound 1 µM,0.486
same,relative viability,HARA; first compound 0.01 µM,0.113
same,relative viability,HARA; first compound 0.03162 µM,0.107
same,relative viability,HARA; first compound 0.1 µM,0.12
same,relative viability,HARA; first compound 0.3162 µM,0.103
same,relative viability,HARA; first compound 1 µM,0.0534
same,relative viability,NCI-H1666; first compound 0.01 µM,0.703
same,relative viability,NCI-H1666; first compound 0.03162 µM,0.748
same,relative viability,NCI-H1666; first compound 0.1 µM,0.68
same,relative viability,NCI-H1666; first compound 0.3162 µM,0.724
same,relative viability,NCI-H1666; first compound 1 µM,0.47
same,relative viability,201T; first compound 0.01 µM,0.957
same,relative viability,201T; first compound 0.03162 µM,0.935
same,relative viability,201T; first compound 0.1 µM,0.98
same,relative viability,201T; first compound 0.3162 µM,1.03
same,relative viability,201T; first compound 1 µM,0.801
same,relative viability,NCI-H1650; first compound 0.01 µM,0.482
same,relative viability,NCI-H1650; first compound 0.03162 µM,0.467
same,relative viability,NCI-H1650; first compound 0.1 µM,0.424
same,relative viability,NCI-H1650; first compound 0.3162 µM,0.207
same,relative viability,NCI-H1650; first compound 1 µM,0.118
same,relative viability,PC-14; first compound 0.01 µM,0.69
same,relative viability,PC-14; first compound 0.03162 µM,0.544
same,relative viability,PC-14; first compound 0.1 µM,0.555
same,relative viability,PC-14; first compound 0.3162 µM,0.511
same,relative viability,PC-14; first compound 1 µM,0.269
same,relative viability,CAL-12T; first compound 0.01 µM,0.402
same,relative viability,CAL-12T; first compound 0.03162 µM,0.332
same,relative viability,CAL-12T; first compound 0.1 µM,0.353
same,relative viability,CAL-12T; first compound 0.3162 µM,0.168
same,relative viability,CAL-12T; first compound 1 µM,0.0999
same,relative viability,NCI-H2009; first compound 0.01 µM,0.857
same,relative viability,NCI-H2009; first compound 0.03162 µM,0.703
same,relative viability,NCI-H2009; first compound 0.1 µM,0.688
same,relative viability,NCI-H2009; first compound 0.3162 µM,0.543
same,relative viability,NCI-H2009; first compound 1 µM,0.384
same,relative viability,SW 900; first compound 0.01 µM,0.713
same,relative viability,SW 900; first compound 0.03162 µM,0.536
same,relative viability,SW 900; first compound 0.1 µM,0.743
same,relative viability,SW 900; first compound 0.3162 µM,0.663
same,relative viability,SW 900; first compound 1 µM,0.403
same,relative viability,NCI-H661; first compound 0.01 µM,0.357
same,relative viability,NCI-H661; first compound 0.03162 µM,0.368
same,relative viability,NCI-H661; first compound 0.1 µM,0.372
same,relative viability,NCI-H661; first compound 0.3162 µM,0.432
same,relative viability,NCI-H661; first compound 1 µM,0.396
same,relative viability,COR-L23; first compound 0.01 µM,0.198
same,relative viability,COR-L23; first compound 0.03162 µM,0.229
same,relative viability,COR-L23; first compound 0.1 µM,0.193
same,relative viability,COR-L23; first compound 0.3162 µM,0.17
same,relative viability,COR-L23; first compound 1 µM,0.0829
same,relative viability,NCI-H3122; first compound 0.01 µM,0.475
same,relative viability,NCI-H3122; first compound 0.03162 µM,0.412
same,relative viability,NCI-H3122; first compound 0.1 µM,0.402
same,relative viability,NCI-H3122; first compound 0.3162 µM,0.278
same,relative viability,NCI-H3122; first compound 1 µM,0.156
same,relative viability,NCI-H727; first compound 0.01 µM,0.662
same,relative viability,NCI-H727; first compound 0.03162 µM,0.619
same,relative viability,NCI-H727; first compound 0.1 µM,0.525
same,relative viability,NCI-H727; first compound 0.3162 µM,0.596
same,relative viability,NCI-H727; first compound 1 µM,0.35
same,relative viability,HCC-366; first compound 0.01 µM,0.144
same,relative viability,HCC-366; first compound 0.03162 µM,0.164
same,relative viability,HCC-366; first compound 0.1 µM,0.125
same,relative viability,HCC-366; first compound 0.3162 µM,0.119
same,relative viability,HCC-366; first compound 1 µM,0.0666
same,relative viability,NCI-H2170; first compound 0.01 µM,0.781
same,relative viability,NCI-H2170; first compound 0.03162 µM,0.726
same,relative viability,NCI-H2170; first compound 0.1 µM,0.697
same,relative viability,NCI-H2170; first compound 0.3162 µM,0.788
same,relative viability,NCI-H2170; first compound 1 µM,0.726
